Data published in ChEMBL document CHEMBL1156457, “Mechanisms for picrotoxinin and picrotin blocks of alpha2 homomeric glycine receptors” (J Biol Chem, 2007).
Activity calls are given as the source filed them. The calls are words filed in the database; no cut-off is given here.

How the values were obtained:
[1] = target: T1, Glycine receptor subunit alpha-2 (Rattus norvegicus) (UniProt P22771); assay: Effect on rat alpha2 homomeric glycine receptor expressed in CHO cells assessed as shortened deactivation phase of glycine-evoked response at 10 uM administered before glycine challenge by outside patch clamp technique; assay type: cell-based
T1 sequence (whole entry): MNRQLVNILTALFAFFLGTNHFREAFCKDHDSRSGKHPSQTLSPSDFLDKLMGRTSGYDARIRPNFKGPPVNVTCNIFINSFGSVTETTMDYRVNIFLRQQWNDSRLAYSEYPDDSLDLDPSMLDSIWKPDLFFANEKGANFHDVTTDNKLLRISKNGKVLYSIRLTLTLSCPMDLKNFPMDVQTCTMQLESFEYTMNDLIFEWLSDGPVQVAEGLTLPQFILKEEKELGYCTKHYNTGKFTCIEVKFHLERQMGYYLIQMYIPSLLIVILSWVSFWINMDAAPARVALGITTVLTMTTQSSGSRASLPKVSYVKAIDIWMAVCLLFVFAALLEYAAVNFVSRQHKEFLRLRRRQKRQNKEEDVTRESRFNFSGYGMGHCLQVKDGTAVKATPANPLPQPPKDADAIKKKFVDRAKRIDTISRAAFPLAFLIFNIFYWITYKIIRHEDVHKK

[2] = target: T1, Glycine receptor subunit alpha-2 (Rattus norvegicus); assay: Inhibition of rat alpha2 homomeric glycine receptor expressed in CHO cells assessed as inhibition of 30 mM glycine-elicited current at 10 uM by outside patch clamp technique
[3] = target: T2, Glycine receptor subunit alpha-2 (Rattus norvegicus, UniProt P22771); assay: Inhibition of rat alpha2 homomeric glycine receptor expressed in CHO cells assessed as inhibition of 300 uM glycine-elicited current by outside patch clamp technique; assay type: cell-based
T2 sequence (P22771 whole entry): T1 sequence (whole entry)

[4] = target: T1, Glycine receptor subunit alpha-2 (Rattus norvegicus); assay: Inhibition of rat alpha2 homomeric glycine receptor expressed in CHO cells assessed as inhibition of 300 uM glycine-elicited current at 10 uM by outside patch clamp technique; assay type: cell-based
[5] = target: T1, Glycine receptor subunit alpha-2 (Rattus norvegicus); assay: Effect on rat alpha2 homomeric glycine receptor expressed in CHO cells assessed as change in rising time constant of glycine response at 10 uM by outside patch clamp technique; assay type: cell-based
[6] = target: T1, Glycine receptor subunit alpha-2 (Rattus norvegicus); assay: Effect on rat alpha2 homomeric glycine receptor expressed in CHO cells assessed as decrease in channel mean open time at 10 uM by outside patch clamp technique relative to control; assay type: cell-based
[7] = target: T1, Glycine receptor subunit alpha-2 (Rattus norvegicus); assay: Effect on rat alpha2 homomeric glycine receptor expressed in CHO cells assessed as decrease in glycine-evoked recovery time constant at 10 uM by outside patch clamp technique; assay type: cell-based
[8] = target: T1, Glycine receptor subunit alpha-2 (Rattus norvegicus); assay: Effect on rat alpha2 homomeric glycine receptor expressed in CHO cells assessed as glycine-evoked response at 10 uM administered before glycine challenge by outside patch clamp technique; assay type: cell-based
[9] = target: T1, Glycine receptor subunit alpha-2 (Rattus norvegicus); assay: Inhibition of rat alpha2 homomeric glycine receptor expressed in CHO cells assessed as inhibition of deactivation time constant by outside patch clamp technique; assay type: cell-based
[10] = target: T1, Glycine receptor subunit alpha-2 (Rattus norvegicus); assay: (§1) Inhibition of rat alpha2 homomeric glycine receptor expressed in CHO cells assessed as inhibition of 300 uM glycine-elicited current at 3 uM at +50 mV voltage by outside patch clamp technique; assay type: cell-based
[11] = target: T1, Glycine receptor subunit alpha-2 (Rattus norvegicus); assay: Effect on rat alpha2 homomeric glycine receptor expressed in CHO cells assessed as shortened single receptor burst opening in response to glycine-pulse at 10 uM by outside patch clamp technique; assay type: cell-based
[12] = target: T1, Glycine receptor subunit alpha-2 (Rattus norvegicus); assay: Effect on rat alpha2 homomeric glycine receptor expressed in CHO cells assessed as decrease in channel mean open time by outside patch clamp technique relative to control; assay type: cell-based
[13] = target: T1, Glycine receptor subunit alpha-2 (Rattus norvegicus); assay: Inhibition of rat alpha2 homomeric glycine receptor expressed in CHO cells assessed as inhibition of 300 uM glycine-elicited current at 3 uM by outside patch clamp technique; assay type: cell-based
[14] = target: T1, Glycine receptor subunit alpha-2 (Rattus norvegicus); assay: Effect on rat alpha2 homomeric glycine receptor expressed in CHO cells assessed as change in relative area of rising time constant of glycine response at 10 uM by outside patch clamp technique; assay type: cell-based
[15] = target: T1, Glycine receptor subunit alpha-2 (Rattus norvegicus); assay: Effect on rat alpha2 homomeric glycine receptor expressed in CHO cells assessed as decrease in activation phase of glycine response at 10 uM by outside patch clamp technique; assay type: cell-based
[16] = target: T1, Glycine receptor subunit alpha-2 (Rattus norvegicus); assay: as §1; assay type: cell-based; remark: listed apart in the source
[17] = target: T1, Glycine receptor subunit alpha-2 (Rattus norvegicus); assay: Effect on rat alpha2 homomeric glycine receptor expressed in CHO cells assessed as flickering of channel in response to glycine-pulse at 30 uM by outside patch clamp technique; assay type: cell-based
[18] = target: T1, Glycine receptor subunit alpha-2 (Rattus norvegicus); assay: Effect on rat alpha2 homomeric glycine receptor expressed in CHO cells assessed as shortened single receptor burst opening in response to glycine-pulse at 30 uM by outside patch clamp technique; assay type: cell-based
[19] = target: T1, Glycine receptor subunit alpha-2 (Rattus norvegicus); assay: Effect on rat alpha2 homomeric glycine receptor expressed in CHO cells assessed as decrease in activation phase of glycine response at 30 uM by outside patch clamp technique; assay type: cell-based
[20] = target: T1, Glycine receptor subunit alpha-2 (Rattus norvegicus); assay: Effect on rat alpha2 homomeric glycine receptor expressed in CHO cells assessed as change in rising time constant of glycine response at 300 uM by outside patch clamp technique; assay type: cell-based
[21] = target: T1, Glycine receptor subunit alpha-2 (Rattus norvegicus); assay: Effect on rat alpha2 homomeric glycine receptor expressed in CHO cells assessed as shortened deactivation phase of glycine-evoked response at 100 uM administered before glycine challenge by outside patch clamp technique; assay type: cell-based
[22] = target: T1, Glycine receptor subunit alpha-2 (Rattus norvegicus); assay: Inhibition of rat alpha2 homomeric glycine receptor expressed in CHO cells assessed as inhibition of 30 mM glycine-elicited current at 300 uM by outside patch clamp technique
[23] = target: T1, Glycine receptor subunit alpha-2 (Rattus norvegicus); assay: Inhibition of rat alpha2 homomeric glycine receptor expressed in CHO cells assessed as inhibition of 300 uM glycine-elicited current at 100 uM at -50 mV voltage by outside patch clamp technique; assay type: cell-based
[24] = target: T1, Glycine receptor subunit alpha-2 (Rattus norvegicus); assay: Inhibition of rat alpha2 homomeric glycine receptor expressed in CHO cells assessed as inhibition of 300 uM glycine-elicited current at 300 uM by outside patch clamp technique
[25] = target: T1, Glycine receptor subunit alpha-2 (Rattus norvegicus); assay: Effect on rat alpha2 homomeric glycine receptor expressed in CHO cells assessed as decrease in channel mean open time at 30 uM by outside patch clamp technique relative to control; assay type: cell-based
[26] = target: T1, Glycine receptor subunit alpha-2 (Rattus norvegicus); assay: Effect on rat alpha2 homomeric glycine receptor expressed in CHO cells assessed as change in relative area of rising time constant of glycine response at 300 uM by outside patch clamp technique; assay type: cell-based
[27] = target: T1, Glycine receptor subunit alpha-2 (Rattus norvegicus); assay: Effect on rat alpha2 homomeric glycine receptor expressed in CHO cells assessed as glycine-evoked response at 100 uM administered before glycine challenge by outside patch clamp technique; assay type: cell-based
[28] = target: T1, Glycine receptor subunit alpha-2 (Rattus norvegicus); assay: Inhibition of rat alpha2 homomeric glycine receptor expressed in CHO cells assessed as inhibition of 300 uM glycine-elicited current at 100 uM at +50 mV voltage by outside patch clamp technique; assay type: cell-based

With C=C(C)[C@@H]1[C@H]2OC(=O)[C@@H]1[C@]1(O)C[C@H]3O[C@]34C(=O)O[C@H]2[C@]14C [PICROTOXININ] the Activity [1] was “Active”, the inhibition [2] was 47.4% and the IC50 [3] was 2.4 µM. It also gave an inhibition [4] of 78.9%, an Activity [5] of 81% and an Activity [6] of 9.3 ms. The Activity [7] was 17.6 ms, the Activity [8] was “Active” and the Activity [9] was “Dose-dependent effect”. The Activity [10] was “Active”, the Activity [11] was “Active” and the Activity [12] was “Dose-dependent effect”. For the same compound, the inhibition [13] was 50%, the Activity [14] was 19% and the Activity [15] was “Active”. The Activity [16] was “Active”.

For CC(C)(O)[C@@H]1[C@H]2OC(=O)[C@@H]1[C@]1(O)C[C@H]3O[C@]34C(=O)O[C@H]2[C@]14C [PICROTIN], the Activity [17] was “Active”, the Activity [18] was “Active” and the IC50 [3] was 117 µM. For the same compound, the Activity [19] was “Active”, the Activity [20] was 91.1% and the Activity [9] was “Dose-dependent effect”. The Activity [21] was “Active”, the inhibition [22] was 36.3% and the Activity [23] was “Active”. For the same compound, the inhibition [24] was 63.7%, the Activity [12] was “Dose-dependent effect” and the inhibition [13] was 3.4%. For the same compound, the Activity [25] was 2.9 ms, the Activity [26] was 8.9% and the Activity [27] was “Active”. For the same compound, the Activity [28] was “Active”.
